According to ChEMBL document CHEMBL3792312, “Synthesis and docking studies of pyrazine-thiazolidinone hybrid scaffold targeting dormant tuberculosis” (Bioorg Med Chem Lett, 2016):
Converted amounts (≈) assume the structure as drawn.

Legend:
Staphylococcus aureus [1] = experiment: Antibacterial activity against Staphylococcus aureus at 10 ug after 12 hrs; type: functional
Staphylococcus aureus [2] = experiment: Antibacterial activity against Staphylococcus aureus at 3 ug after 12 hrs; type: functional
Staphylococcus aureus [3] = experiment: Antibacterial activity against Staphylococcus aureus at 30 ug after 12 hrs; type: functional
Escherichia coli [4] = experiment: Antibacterial activity against Escherichia coli at 30 ug after 8 hrs; type: functional
[5] = system: Mycolicibacterium smegmatis; experiment: Antitubercular activity against dormant Mycobacterium smegmatis MC2 155 at 10 ug after 12 days by XTT-Menadione assay; type: functional, str. MC2 155
Escherichia coli [6] = experiment: Antibacterial activity against Escherichia coli at 10 ug after 8 hrs; type: functional
[7] = system: Mycolicibacterium smegmatis; experiment: Antitubercular activity against dormant Mycobacterium smegmatis MC2 155 at 30 ug after 12 days by XTT-Menadione assay; type: functional, str. MC2 155
A549 = experiment: (§1) Cytotoxicity against human A549 cells after 3 days by MTT assay; type: cell-based; details: Homo sapiens, A549, 72 h
[8] = as §1; type: cell-based; details: human, A549 cells; read-out: MIC
Bacillus subtilis [9] = experiment: Antibacterial activity against Bacillus subtilis at 3 ug after 12 hrs; type: functional
[10] = system: Mycobacterium tuberculosis; experiment: Antitubercular activity against dormant Mycobacterium tuberculosis H37Ra at 3 ug after 12 days by XTT-Menadione assay; type: functional
[11] = system: Mycolicibacterium smegmatis; experiment: Antitubercular activity against dormant Mycobacterium smegmatis MC2 155 at 3 ug after 12 days by XTT-Menadione assay; type: functional, str. MC2 155
[12] = Cytotoxicity against human PANC1 cells after 5 days by MTT assay; type: cell-based, PANC-1; details: for IC50: Homo sapiens, PANC-1, 120 h; for MCC at 120 h: human, PANC1 cells, read-out: MIC
Pseudomonas fluorescens [13] = experiment: Antibacterial activity against Pseudomonas fluorescens at 10 ug after 8 hrs; type: functional
[14] = Cytotoxicity against human THP1 cells after 5 days by MTT assay; type: cell-based, THP-1; details: for IC50: Homo sapiens, THP-1, 120 h; for MCC at 120 h: human, THP1 cells, read-out: MIC
Pseudomonas fluorescens [15] = experiment: Antibacterial activity against Pseudomonas fluorescens at 3 ug after 8 hrs; type: functional
[16] = system: Mycobacterium tuberculosis; experiment: Antitubercular activity against dormant Mycobacterium tuberculosis H37Ra after 12 days by XTT-Menadione assay; type: functional, organism-based; details: 288 h
Bacillus subtilis [17] = experiment: Antibacterial activity against Bacillus subtilis at 10 ug after 12 hrs; type: functional
[18] = (§2) Cytotoxicity against human MCF7 cells after 4 days by MTT assay; type: cell-based; details: human, MCF7 cells; read-out: MIC
MCF7 = experiment: as §2; type: cell-based; details: Homo sapiens, MCF7, 96 h
Pseudomonas fluorescens [19] = experiment: Antibacterial activity against Pseudomonas fluorescens at 30 ug after 8 hrs; type: functional
Bacillus subtilis [20] = experiment: Antibacterial activity against Bacillus subtilis at 30 ug after 12 hrs; type: functional
Escherichia coli [21] = experiment: Antibacterial activity against Escherichia coli at 3 ug after 8 hrs; type: functional
[22] = system: Mycobacterium tuberculosis; experiment: Antitubercular activity against dormant Mycobacterium tuberculosis H37Ra at 30 ug after 12 days by XTT-Menadione assay; type: functional
[23] = system: Mycobacterium tuberculosis; experiment: Antitubercular activity against dormant Mycobacterium tuberculosis H37Ra at 10 ug after 12 days by XTT-Menadione assay; type: functional

| SMILES | inhibition (INH) (Staphylococcus aureus [1]) [%] | inhibition (INH) (Staphylococcus aureus [2]) [%] | inhibition (INH) (Staphylococcus aureus [3]) [%] | inhibition (INH) (Escherichia coli [4]) [%] | inhibition (INH) [5] [%] | inhibition (INH) (Escherichia coli [6]) [%] | inhibition (INH) [7] [%] | IC50 (A549) [µg/mL] | MCC at 72 h [8] [µg/mL] | inhibition (INH) (Bacillus subtilis [9]) [%] | inhibition (INH) [10] [%] | inhibition (INH) [11] [%] | IC50 [12] [µg/mL] | MCC at 120 h [12] [µg/mL] | inhibition (INH) (Pseudomonas fluorescens [13]) [%] | IC50 [14] [µg/mL] | MCC at 120 h [14] [µg/mL] | inhibition (INH) (Pseudomonas fluorescens [15]) [%] | IC50 [16] [µg/mL] | MIC [16] [µg/mL] | other results |
| --- | --- | --- | --- | --- | --- | --- | --- | --- | --- | --- | --- | --- | --- | --- | --- | --- | --- | --- | --- | --- | --- |
| Cc1cnc(C(=O)NN2C(=O)CS[C@H]2c2ccc(N(C)C)cc2)cn1 | 27.85 | 34.87 | 22.9 | 46.74 | 9.803 | 28.08 | 23.39 | > 100 | > 100 | 5.9 | 60.23 | -19.7482 | > 100 | > 100 | 29.04 | > 100 | > 100 | 12.03 | 2.31 (≈ 6.46 µM) | 28.4 (≈ 79.5 µM) | inhibition (INH) (Bacillus subtilis [17]): 2.71%; MCC at 96 h [18]: > 100 µg/mL; IC50 (MCF7): > 100 µg/mL; inhibition (INH) (Pseudomonas fluorescens [19]): 21.18%; inhibition (INH) (Bacillus subtilis [20]): 3.26%; inhibition (INH) (Escherichia coli [21]): 35.59%; inhibition (INH) [22]: 91.72%; inhibition (INH) [23]: 65.91% |
| O=C(NN1C(=O)CS[C@@H]1c1ccc(Cl)cc1)c1cnccn1 | 12.54 | 8.74 | -47.91 | 51.04 | -6.521 | 38.71 | -1.593 | > 100 | > 100 | -13.1 | 66.68 | 41.55 | > 100 | > 100 | 3.658 | > 100 | > 100 | 8.12 | 1.09 (≈ 3.26 µM) | 28.8 (≈ 86.1 µM) | inhibition (INH) (Bacillus subtilis [17]): 9.6%; MCC at 96 h [18]: > 100 µg/mL; IC50 (MCF7): > 100 µg/mL; inhibition (INH) (Pseudomonas fluorescens [19]): 14.72%; inhibition (INH) (Bacillus subtilis [20]): 17.44%; inhibition (INH) (Escherichia coli [21]): -35.07%; inhibition (INH) [22]: 91.2%; inhibition (INH) [23]: 66.53% |
| O=C(NN1C(=O)CS[C@@H]1c1ccc([N+](=O)[O-])cc1)c1cnccn1 | -1.75 | 21.93 | -24.9 | 9 | -31.0588 | 14.12 | 9.803 | > 100 | > 100 | 16.03 | 60.59 | 36.09 | > 100 | > 100 | 13.35 | 97.7 (≈ 283 µM) | > 100 | 6.405 | 1.47 (≈ 4.25 µM) | 29 (≈ 84 µM) | inhibition (INH) (Bacillus subtilis [17]): -4.94%; MCC at 96 h [18]: > 100 µg/mL; IC50 (MCF7): 65.6 µg/mL (≈ 190 µM); inhibition (INH) (Pseudomonas fluorescens [19]): -21.38%; inhibition (INH) (Bacillus subtilis [20]): 8.09%; inhibition (INH) (Escherichia coli [21]): -6.69%; inhibition (INH) [22]: 90.93%; inhibition (INH) [23]: 66.45% |
